Laboratory results: paper PMC10304470, “Characterization of the Antimicrobial Activities of Trichoplusia ni Cecropin A as a High-Potency Therapeutic against Colistin-Resistant Escherichia coli” (Pharmaceutics, 2023)
Peptide text beside a SMILES is read from it.

Experiments:
all bacterial strains = test: Average MIC over all strains and relative selective index; format: cell-based; conditions: 8 strains; MIC above 64 μM taken as 128 μM
Protocol: (§1) The antibacterial abilities of the peptides (T. ni cecropin, cecropin A, polymyxin B, colistin, and melittin) were determined using the broth dilution method as previously reported. The peptides dissolved at 10 mg/mL in deionized water were serially diluted from 64 μM to 0.5 μM in 96-well plates using Mueller–Hinton (MH) broth, and bacteria cultured to exponential growth were added at 2 × 10^5 cells/mL. The group of bacteria that grew untreated in the broth was set as the positive control, and the uninoculated broth as the negative control. Dissolved peptides are colorless and equal to the OD value of the medium only. After 16 h incubation at 37 °C, the absorbance at 600 nm was measured using a SpectraMAX microplate reader (Molecular Devices, San Jose, CA, USA).

[1] = test system: Klebsiella pneumoniae (NCCP 16054); format: cell-based; conditions: NCCP 16054, 16 h
From the text: (§2) E. coli (KCTC 1682) was obtained from the Korean Collection for Type Cultures (KCTC, Jeongeup, Republic of Korea), and Acinetobacter baumannii (KCCM 40203) and Pseudomonas aeruginosa (KCCM 11328) from the Korea Culture Center of Microorganisms (KCCM, Seoul, Republic of Korea). Klebsiella pneumoniae (NCCP 16054), colistin-resistant E. coli NMA 1557 (ColREC 1557), NMS 12 (ColREC 12), and colistin-resistant A. baumannii NMS 1915 (ColRAB 1915), as well as colistin-resistant K. pneumoniae NMS 139 (ColRKP 139), were obtained from the National Institute of Health Multidrug Resistant Bacteria Specialized Pathogen Resources Bank (Osong, Republic of Korea).
as §1

[2] = test system: Acinetobacter baumannii (KCCM 40203); format: cell-based; conditions: KCCM 40203, 16 h
From the text: as §2, §1

[3] = test system: Pseudomonas aeruginosa (KCCM 11328); format: cell-based; conditions: KCCM 11328, 16 h
From the text: as §2, §1

[4] = test system: colistin-resistant E. coli NMS 12 (ColREC 12); format: cell-based, Escherichia coli; conditions: MH broth, 2 × 10^5 cells/mL, 16 h, 37 °C, OD600, >95% killing
From the text: as §2, §1

E. coli (KCTC 1682) = format: cell-based, Escherichia coli; conditions: KCTC 1682, 16 h
From the text: as §2, §1

[5] = test system: colistin-resistant E. coli NMA 1557 (ColREC 1557); format: cell-based, Escherichia coli; conditions: MH broth, 2 × 10^5 cells/mL, 16 h, 37 °C, OD600, >95% killing
From the text: as §2, §1

L-929 cells = test: Cytotoxicity, WST-8; format: cell-based, mouse; conditions: up to 100 μM peptide, 24 h
Protocol: (§3) Murine macrophage RAW 264.7 cells and mouse fibroblast L-929 cells were used for research and were purchased from the Korea Cell Line Bank (Seoul, Republic of Korea). Both cells were cultured in Dulbecco’s Modified Eagle’s Medium (DMEM; Welgene, Gyeongsan, Republic of Korea) supplemented with 10% fetal bovine serum and 1% antibiotics (penicillin/streptomycin) at 37 °C in the presence of 5% CO2. To measure the cytotoxicities of peptides against RAW 264.7 cells and L-929 cells, both cell lines were seeded at a density of 1 × 10^5 cells/well in a 96-well plate, to which each concentration of peptide solution (from 1.6 μM to 100 μM) was added, followed by incubation for 22 h. Subsequently, WST-8 (Biomax Co., Ltd., Guri, Republic of Korea) was added at 10% volume of the final solution, and the mixture was incubated for an additional 2 h. Absorbance was measured at 450 nm. Percentages were calculated based on untreated cells.

RAW 264.7 cells = test: Cytotoxicity, WST-8; format: cell-based, mouse; conditions: 100 μM peptide, 24 h
Protocol: as §3

[6] = test system: ColREC 1557-stimulated RAW 264.7 cells; test: Nitrite (NO) production in ColREC 1557-infected macrophages; format: cell-based, mouse; conditions: 1.3 μM peptide, 1 h before ColREC 1557 infection
Protocol: To investigate the inflammatory response induced by ColREC 1557, RAW 264.7 cells (1 × 10^5 cells/well) were treated with various concentrations of peptide (0.6 to 10 μM) 1 h before bacterial infection. The control was an untreated cell. ColREC 1557 that had been cultured in LB broth overnight and sub-cultured to the exponential phase were harvested, suspended in DMEM, and used to infect RAW 264.7 cells to a final concentration of 1 × 10^5 cells/well. Subsequent nitrite and IL-6 detection was performed as described in Section 2.15.

[7] = test system: sheep red blood cells (sRBCs); test: Hemolysis; format: cell-based; conditions: 100 μM peptide, 1 h, 37 °C
Protocol: Sheep red blood cells (sRBCs; KisanBio, Seoul, Republic of Korea) were added to three volumes of phosphate-buffered saline (PBS; 35 mM phosphate buffer containing 150 mM NaCl, pH 7.4) and centrifuged five times at 4 °C, 1000× g for 5 min, followed by a final suspension in PBS at 4% (w/v). Peptides serially diluted from 100 μM to 3.1 μM in PBS at 100 μL in a 96-well plate were prepared, and an equal volume of blood solution was added. After incubation at 37 °C for 1 h, the plates were centrifuged for 5 min at 4 °C, 1000× g. The absorbance of the supernatant was measured at 405 nm. The 100% hemolysis control was 0.1% Triton-X 100 added to the blood solution; the negative control was blood solution added to PBS.

[8] = test system: colistin-resistant K. pneumoniae NMS 139 (ColRKP 139); format: cell-based, Klebsiella pneumoniae; conditions: MH broth, 2 × 10^5 cells/mL, 16 h, 37 °C, OD600, >95% killing
From the text: as §2, §1

CC[C@H](C)CCCCC(=O)N[C@@H](CCN)C(=O)N[C@H](C(=O)N[C@@H](CCN)C(=O)N[C@H]1CCNC(=O)[C@H]([C@@H](C)O)NC(=O)[C@H](CCN)NC(=O)[C@H](CCN)NC(=O)[C@H](CC(C)C)NC(=O)[C@@H](CC(C)C)NC(=O)[C@H](CCN)NC1=O)[C@@H](C)O [colistin] (HELM PEPTIDE1{[CC[C@H](C)CCCCC(=O)[*:2]].[Dab].T.[Dab].[Dab].[Dab].[dL].L.[Dab].[Dab].T}$PEPTIDE1,PEPTIDE1,5:R3-11:R2$$$V2.0; N-terminus assumed; bridges inferred)
GM (geometric mean, average MIC value of all bacterial strains) (all bacterial strains): 33.72 µM
Minimal Inhibitory Concentration [1]: 0.25 µM
Minimal Inhibitory Concentration [2]: 0.25 µM
Minimal Inhibitory Concentration [3]: 1 µM
Minimal Inhibitory Concentration [4]: 4 µM
Minimal Inhibitory Concentration (E. coli (KCTC 1682)): 0.25 µM
Minimal Inhibitory Concentration [5]: 8 µM
viability / survival rate (L-929 cells): 95.0%
cell viability (RAW 264.7 cells): 70.1%
inhibition of NO [6]: 24.7%
hemolytic activity [7]: no hemolytic activity
Minimal Inhibitory Concentration [8]: >64 µM
